Results from PubChem BioAssay AID330 (DTP/NCI, 2004).
“And” between values parts separate entries of the source, which are not always exact repeats. Identical values can stand only once. Toxic doses and inconclusive results are not listed. How the source made its calls: active means survival T/C of 150% or more; inactive means T/C below 125% in these data.

System: P388 leukemia ip, CD2F1 mice, survival T/C
Test: NCI In Vivo Anticancer Drug Screen. Data for tumor model P388 Leukemia (intraperitoneal) in CD2F1 (CDF1) mice
Conditions: endpoint: median survival time, higher = longer survival
Summary of the method: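 Mice carrying the transplanted tumor received test compound or vehicle. Survival was recorded in each group, and the value is the treated-group measurement divided by that of the vehicle-treated control group.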

[1] = dose: 6.25 mg/kg/injection, schedule: Q01DX009 (ip), vehicle: Klucel (hydroxypropylcellulose) (HPC)
[2] = dose: 12.5 mg/kg/injection, schedule: Q01DX009 (ip), vehicle: Klucel (hydroxypropylcellulose) (HPC)
[3] = dose: 25.0 mg/kg/injection, schedule: Q01DX009 (ip), vehicle: Klucel (hydroxypropylcellulose) (HPC)
[4] = dose: 50.0 mg/kg/injection, schedule: Q01DX009 (ip), vehicle: Klucel (hydroxypropylcellulose) (HPC)
[5] = dose: 100.0 mg/kg/injection, schedule: Q01DX009 (ip), vehicle: Klucel (hydroxypropylcellulose) (HPC)
[6] = dose: 200.0 mg/kg/injection, schedule: Q01DX009 (ip), vehicle: Klucel (hydroxypropylcellulose) (HPC)
[7] = dose: 100.0 mg/kg/injection, schedule: Q01DX001 (ip), vehicle: saline with Tween-80
[8] = dose: 3.12 mg/kg/injection, schedule: Q01DX009 (ip), vehicle: saline with Tween-80
[9] = dose: 25.0 mg/kg/injection, schedule: Q01DX009 (ip), vehicle: saline with Tween-80
[10] = dose: 50.0 mg/kg/injection, schedule: Q01DX009 (ip), vehicle: saline with Tween-80
[11] = dose: 100.0 mg/kg/injection, schedule: Q01DX009 (ip), vehicle: saline with Tween-80
[12] = dose: 60.0 mg/kg/injection, schedule: Q01DX005 (ip), vehicle: saline with Tween-80
[13] = dose: 120.0 mg/kg/injection, schedule: Q01DX005 (ip), vehicle: saline with Tween-80
[14] = dose: 240.0 mg/kg/injection, schedule: Q01DX005 (ip), vehicle: saline with Tween-80

Measured: T/C

CCOC(=O)C1(N=O)CCCCC1=O (stereo not drawn)
inactive: dose: 100.0 mg/kg/injection, schedule: Q01DX001 (ip), vehicle: alcohol 103 % of control | dose: 200.0 mg/kg/injection, schedule: Q01DX001 (ip), vehicle: alcohol 97 % of control | dose: 400.0 mg/kg/injection, schedule: Q01DX001 (ip), vehicle: alcohol 108 % of control

C/C(=C\C=C/c1ccoc1)C(=O)c1cc(C)co1
inactive: [1] 106 % of control | [2] 103 % of control and 95 % of control | [3] 106 % of control and 96 % of control | [4] 115 % of control and 96 % of control | [5] 104 % of control

CC(C)=CC(C(=O)C1CC1)C(CC(=O)C1CC1)C(C)C (stereo not drawn)
inactive: dose: 25.0 mg/kg/injection, schedule: Q01DX005 (ip), vehicle: saline with Tween-80 99 % of control | dose: 50.0 mg/kg/injection, schedule: Q01DX005 (ip), vehicle: saline with Tween-80 92 % of control | dose: 100.0 mg/kg/injection, schedule: Q01DX005 (ip), vehicle: saline with Tween-80 92 % of control

Cc1ncc(C(O)CCC2OCCO2)n1Cc1ccccc1 (stereo not drawn)
inactive: [4] 96 % of control | [5] 98 % of control | [6] 98 % of control

CCCCNC(=O)N1C2C3CCC(C)(OC3(C)C)C21 (stereo not drawn)
inactive: dose: 50.0 mg/kg/injection, schedule: Q01DX005 (ip), vehicle: saline 101 % of control | dose: 100.0 mg/kg/injection, schedule: Q01DX005 (ip), vehicle: saline 101 % of control | dose: 200.0 mg/kg/injection, schedule: Q01DX005 (ip), vehicle: saline 102 % of control

Cc1ccc(S(=O)(=O)OI(O)c2ccccc2)cc1
inactive: dose: 50.0 mg/kg/injection, schedule: Q01DX009 (ip), vehicle: water 108 % of control | dose: 100.0 mg/kg/injection, schedule: Q01DX009 (ip), vehicle: water 104 % of control

COC(=O)C1C2CC3c4[nH]c5c([N+](=O)[O-])c(OC)ccc5c4CCN3CC2CC(OC(=O)c2cc(OC)c(OC)c(OC)c2)C1OC (stereo not drawn)
inactive: dose: 9.38 mg/kg/injection, schedule: Q01DX005 (ip), vehicle: Klucel (hydroxypropylcellulose) (HPC) 98 % of control | dose: 18.75 mg/kg/injection, schedule: Q01DX005 (ip), vehicle: Klucel (hydroxypropylcellulose) (HPC) 95 % of control | dose: 37.5 mg/kg/injection, schedule: Q01DX005 (ip), vehicle: Klucel (hydroxypropylcellulose) (HPC) 96 % of control | dose: 75.0 mg/kg/injection, schedule: Q01DX005 (ip), vehicle: Klucel (hydroxypropylcellulose) (HPC) 86 % of control

COc1cc2c(cc1OC)C(c1cccc(Cl)c1)=NN=C(C)C2
inactive: dose: 60.0 mg/kg/injection, schedule: Q01DX005 (ip), vehicle: Klucel (hydroxypropylcellulose) (HPC) 105 % of control | dose: 120.0 mg/kg/injection, schedule: Q01DX005 (ip), vehicle: Klucel (hydroxypropylcellulose) (HPC) 101 % of control | dose: 240.0 mg/kg/injection, schedule: Q01DX005 (ip), vehicle: Klucel (hydroxypropylcellulose) (HPC) 96 % of control

c1ccc(CN2COc3c(ccc4c3OCN(Cc3ccccc3)C4)C2)cc1
inactive: dose: 3.12 mg/kg/injection, schedule: Q01DX009 (ip), vehicle: Klucel (hydroxypropylcellulose) (HPC) 107 % of control | [1] 104 % of control and 95 % of control | [2] 103 % of control | [3] 94 % of control

CNC(=O)OCc1nc(SC)n(-c2ccccc2)c1COC(=O)NC
inactive: dose: 12.5 mg/kg/injection, schedule: Q01DX005 (ip), vehicle: distilled water + Tween-80 99 % of control | dose: 25.0 mg/kg/injection, schedule: Q01DX005 (ip), vehicle: distilled water + Tween-80 101 % of control | dose: 50.0 mg/kg/injection, schedule: Q01DX005 (ip), vehicle: distilled water + Tween-80 99 % of control and 102 % of control and 92 % of control | dose: 100.0 mg/kg/injection, schedule: Q01DX005 (ip), vehicle: distilled water + Tween-80 101 % of control and 106 % of control and 108 % of control | dose: 200.0 mg/kg/injection, schedule: Q01DX005 (ip), vehicle: distilled water + Tween-80 113 % of control | dose: 400.0 mg/kg/injection, schedule: Q01DX005 (ip), vehicle: distilled water + Tween-80 99 % of control

CC(C)(C)Nc1nc2ccccc2c(=O)o1
inactive: [7] 101 % of control | dose: 200.0 mg/kg/injection, schedule: Q01DX001 (ip), vehicle: saline with Tween-80 106 % of control | dose: 400.0 mg/kg/injection, schedule: Q01DX001 (ip), vehicle: saline with Tween-80 116 % of control

CC1C(c2ccccc2)OCCN1C(=S)Nc1ccc(S(=O)(=O)N2CCCCC2)cc1 (stereo not drawn)
inactive: [4] 86 % of control and 95 % of control | [5] 105 % of control | [6] 91 % of control and 95 % of control

COc1cc2c(cc1OC)C(C#N)C2 (stereo not drawn)
inactive: dose: 0.78 mg/kg/injection, schedule: Q01DX009 (ip), vehicle: saline with Tween-80 100 % of control | dose: 1.56 mg/kg/injection, schedule: Q01DX009 (ip), vehicle: saline with Tween-80 97 % of control | [8] 102 % of control | dose: 6.25 mg/kg/injection, schedule: Q01DX009 (ip), vehicle: saline with Tween-80 102 % of control

CC(=O)OC1CCC2(C)C(=CCC3C4CC(C5(O)C(=O)Nc6ccccc65)C(=O)C4(C)CCC32)C1 (stereo not drawn)
inactive: [9] 102 % of control | [10] 93 % of control | [11] 94 % of control

ClCCN(CCCl)CCCN1c2ccccc2Sc2ccccc21
inactive: [8] 122 % of control

COc1cc2c(c3c1c(=O)c1ccc(F)cc1n3C)C=CC(C)(C)O2
inactive: dose: 50.0 mg/kg/injection, schedule: Q01DX005 (ip), vehicle: Klucel (hydroxypropylcellulose) (HPC) 98 % of control | dose: 100.0 mg/kg/injection, schedule: Q01DX005 (ip), vehicle: Klucel (hydroxypropylcellulose) (HPC) 108 % of control | dose: 200.0 mg/kg/injection, schedule: Q01DX005 (ip), vehicle: Klucel (hydroxypropylcellulose) (HPC) 109 % of control

Cc1cc2ccccc2nc1Cl
inactive: dose: 60.0 mg/kg/injection, schedule: Q01DX005 (ip), vehicle: saline + Tween-80 + alcohol 100 % of control | dose: 120.0 mg/kg/injection, schedule: Q01DX005 (ip), vehicle: saline + Tween-80 + alcohol 104 % of control | dose: 240.0 mg/kg/injection, schedule: Q01DX005 (ip), vehicle: saline + Tween-80 + alcohol 104 % of control

CCN(N=Nc1ccc(OC)cc1)c1ccc(OC)cc1
inactive: dose: 12.5 mg/kg/injection, schedule: Q01DX009 (ip), vehicle: saline with Tween-80 103 % of control and 96 % of control | [9] 108 % of control and 109 % of control | [10] 116 % of control and 117 % of control | [11] 100 % of control and 124 % of control

COc1cc2[nH]c3cc(OC)c(OC)cc3c2cc1C
inactive: dose: 15.0 mg/kg/injection, schedule: Q01DX005 (ip), vehicle: saline with Tween-80 100 % of control | dose: 30.0 mg/kg/injection, schedule: Q01DX005 (ip), vehicle: saline with Tween-80 96 % of control | [12] 102 % of control and 86 % of control

CSc1nc2n(C)cc(C)cc-2c(=O)n1
inactive: dose: 25.0 mg/kg/injection, schedule: Q01DX001 (ip), vehicle: saline with Tween-80 97 % of control | dose: 50.0 mg/kg/injection, schedule: Q01DX001 (ip), vehicle: saline with Tween-80 97 % of control | [7] 99 % of control

Cc1ccc2c(c1)CN(C)c1ccc(C)cc1CN2C
inactive: [12] 98 % of control | [13] 100 % of control | [14] 98 % of control

CC1(C)CC(OS(=O)(=O)c2ccc(Br)cc2)CC(C)(C)N1O
inactive: [4] 93 % of control | [5] 99 % of control | [6] 97 % of control

CCCCCCCCCCCCCCCCS(=O)(=O)N/N=c1/sc2ccc(S(=O)(=O)O)cc2n1C
inactive: [4] 115 % of control | [5] 102 % of control | [6] 94 % of control

CC(=O)Cn1ccccc1=O
inactive: dose: 60.0 mg/kg/injection, schedule: Q01DX005 (ip), vehicle: saline 99 % of control | dose: 120.0 mg/kg/injection, schedule: Q01DX005 (ip), vehicle: saline 94 % of control | dose: 240.0 mg/kg/injection, schedule: Q01DX005 (ip), vehicle: saline 99 % of control

CCOC(=O)C(=O)Nc1cccc(NC(=O)C(=O)OCC)n1
inactive: [12] 100 % of control | [13] 94 % of control

CCCCCC(CN(C)C)C(/C=C/c1ccc(Cl)c(Cl)c1)=N\O (stereo not drawn)
inactive: dose: 50.0 mg/kg/injection, schedule: Q01DX009 (ip), vehicle: saline 116 % of control | dose: 100.0 mg/kg/injection, schedule: Q01DX009 (ip), vehicle: saline 105 % of control

COC(=O)/C(C#N)=C/N(C)c1ccc([N+](=O)[O-])cc1
inactive: [10] 100 % of control | [11] 104 % of control | dose: 200.0 mg/kg/injection, schedule: Q01DX009 (ip), vehicle: saline with Tween-80 92 % of control

Cc1cc(C)nc(NS(=O)(=O)c2ccc(Nc3c4ccccc4nc4ncccc34)cc2)n1
inactive: [12] 97 % of control | [13] 90 % of control | [14] 90 % of control
